Test results from US6893858B2, “Human kcnq5 potassium channel, methods and compositions thereof” (Bristol-Myers Squibb Company, priority 2000, dated 2005).

Target: hKCNQ5 (Homo sapiens, UniProt Q9NR82)
Sequence (Q9NR82 36-932): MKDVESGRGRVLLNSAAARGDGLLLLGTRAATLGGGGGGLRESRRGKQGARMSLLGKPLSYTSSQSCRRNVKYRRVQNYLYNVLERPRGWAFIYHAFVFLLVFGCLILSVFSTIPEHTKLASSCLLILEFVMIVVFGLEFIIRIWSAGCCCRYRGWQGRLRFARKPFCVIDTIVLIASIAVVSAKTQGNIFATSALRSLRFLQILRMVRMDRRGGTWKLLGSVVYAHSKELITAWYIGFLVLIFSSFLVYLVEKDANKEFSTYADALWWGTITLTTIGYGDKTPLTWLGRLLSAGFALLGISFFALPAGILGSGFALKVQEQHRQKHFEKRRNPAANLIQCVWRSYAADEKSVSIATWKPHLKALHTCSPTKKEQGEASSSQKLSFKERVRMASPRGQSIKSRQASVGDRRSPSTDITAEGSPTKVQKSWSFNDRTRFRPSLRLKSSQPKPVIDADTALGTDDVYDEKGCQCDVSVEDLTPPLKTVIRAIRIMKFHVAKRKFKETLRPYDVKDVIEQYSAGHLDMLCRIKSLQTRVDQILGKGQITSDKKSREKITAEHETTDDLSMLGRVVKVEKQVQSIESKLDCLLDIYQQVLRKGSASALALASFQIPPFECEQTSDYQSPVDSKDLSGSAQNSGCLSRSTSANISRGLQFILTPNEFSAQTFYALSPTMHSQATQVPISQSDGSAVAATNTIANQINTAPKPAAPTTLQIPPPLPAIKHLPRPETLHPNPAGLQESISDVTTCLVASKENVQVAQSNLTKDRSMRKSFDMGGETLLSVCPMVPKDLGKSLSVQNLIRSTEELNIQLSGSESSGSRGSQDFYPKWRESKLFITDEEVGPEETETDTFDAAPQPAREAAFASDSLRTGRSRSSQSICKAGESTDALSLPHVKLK
Experimental: Frog (Xenopus laevis) oocytes were prepared and injected using standard techniques; each oocyte was injected with approximately 50 nl of hKCNQ5 cRNA. Following injection, oocytes were maintained at 17° C. in ND96 medium comprising (in mM): NaCl, 90; KCl, 1.0; CaCl2, 1.0; MgCl2, 1.0; HEPES, 5.0; pH 7.5. Horse serum (5%) and penicillin/streptomycin (5%) were added to the incubation medium. Recording commenced 2-6 days following mRNA injection. Prior to the start of an experiment, oocytes were placed in a recording chamber and incubated in Modified Barth's Solution (MBS) consisting of (in mM): NaCl, 88; NaHCO3, 2.4; KCl, 1.0; HEPES, 10; MgSO4, 0.82; Ca(NO3)2, 0.33; CaCl2, 0.41; pH 7.5. Oocytes were impaled with electrodes (1-2 MΩ) and standard 2-electrode voltage clamp techniques were employed to record whole-cell membrane currents. Voltage-clamp protocols typically consisted of a series of voltage steps 1-5 second duration, in +10 mV steps from a holding potential of −90 mV to a maximal potential of +40 mV; records were digitized at 5 kHz and stored on a computer using pClamp data acquisition and analysis software (Axon Instruments).

For `CC[N+](CC)(CC)CC` [TEA, tetraethylammonium], the “resistance of hKCNQ5 currents to the potassium channel blocker” value (hKCNQ5 cRNA expressed in Xenopus oocytes, concentrations as high as 30 mM, whole-cell outward currents) was “largely resistant” and the “blockage of hKCNQ5 outward currents (FIG. 8 legend)” value (hKCNQ5 expressed in Xenopus oocytes, at high concentrations) was “resistant to blockage”.
